In ChEMBL document CHEMBL1782002, “Metachromins U-W: cytotoxic merosesquiterpenoids from an Australian specimen of the sponge Thorecta reticulata” (J Nat Prod, 2011):

Experiments:
SF-268 = test: Cytotoxicity against human SF268 cells after 48 hrs by SRB assay; format: functional; conditions: SF-268, 48 h
MCF7 = test: Cytotoxicity against human MCF7 cells after 48 hrs by SRB assay; format: functional; conditions: MCF7, 48 h
HT-29 = test: Cytotoxicity against human HT-29 cells after 48 hrs by SRB assay; format: functional; conditions: HT-29, 48 h
NCI-H460 = test: Cytotoxicity against human H460 cells after 48 hrs by SRB assay; format: functional; conditions: NCI-H460, 48 h
[1] = Cytotoxicity against […] cells after 48 hrs by SRB assay; format: cell-based, Cricetulus griseus; conditions: chinese hamster, CHO-K1 cells

Row | Compound | GI50 (SF-268) | GI50 (MCF7) | GI50 (HT-29) | GI50 (NCI-H460) | GI50 at 48 h [1]
1 | C=C1CCCC(C)(C)C1CC/C(C)=C/Cc1cc(O)ccc1O (stereo not given) [METACHROMIN V] | 5.1 µM | 3.2 µM | 10 µM | 5.1 µM | 2.1 µM
2 | CC(=O)O[C@H]1C(=O)[C@@]2(C)[C@H]([C@H](OC(=O)c3ccccc3)[C@]3(O)C[C@H](OC(=O)[C@H](O)[C@@H](NC(=O)c4ccccc4)c4ccccc4)C(C)=C1C3(C)C)[C@]1(OC(C)=O)CO[C@@H]1C[C@@H]2O [PACLITAXEL] | 0.012 µM | 0.012 µM | 0.012 µM | 0.024 µM | 5.9 µM
3 | C=C1CCCC(C)(C)C1CCC1(C)C=Cc2cc(O)cc(OC)c2O1 (stereo not given) [METACHROMIN U] | 32 µM | 29 µM | 30 µM | 37 µM | 27 µM
4 | C=C1CCCC(C)(C)C1CCc1ccc2c(c1)C(=O)C=C(OC)C2=O (stereo not given) [METACHROMIN W] | 104 µM | 107 µM | 130 µM | 50 µM | 89 µM
5 | CN[C@@H]1C[C@H]2O[C@@](C)([C@@H]1OC)n1c3ccccc3c3c4c(c5c6ccccc6n2c5c31)C(=O)NC4 [STAUROSPORINE] | 0.044 µM | 11 µM | 3.6 µM | 3.6 µM | 0.13 µM
